Legend:
Rattus norvegicus = assay: Effect on parathyroid hormone in po dosed overnight fasted Sprague-Dawley rat assessed as reduction in plasma PTH level measured after 0.5 to 6 hrs of post treatment by sandwich ELISA analysis; format: functional, organism-based; conditions: dose 3-30 mg/kg, time 0.5-6 hrs
hERG [1] = target: T1, hERG (Homo sapiens, UniProt Q12809); assay: (§1) Inhibition of hERG at 10 uM relative to control; format: toxicity
[2] = Microsomal stability in human liver microsomes assessed as parent compound remaining at 1 uM measured upto 30 mins in presence of NADPH by LC-MS/MS analysis; format: ADME, Microsome; conditions: for remaining at 0.5 h, 1 µM: liver microsomes, read-out: Stability
hERG [3] = target: T1, hERG; assay: (§2) Inhibition of hERG at 1 uM relative to control; format: toxicity
[4] = Microsomal stability in rat liver microsomes assessed as parent compound remaining at 1 uM measured upto 30 mins in presence of NADPH by LC-MS/MS analysis; format: ADME, Microsome; conditions: read-out: Stability
CYP2D6 [5] = target: T2, CYP2D6 (Homo sapiens, UniProt P10635); assay: Inhibition of CYP2D6 in human liver microsomes at 1 uM preincubated for 5 mins followed by NADPH addition by LC-MS/MS analysis relative to control; format: ADME, Microsome
T2 sequence (P10635 whole entry): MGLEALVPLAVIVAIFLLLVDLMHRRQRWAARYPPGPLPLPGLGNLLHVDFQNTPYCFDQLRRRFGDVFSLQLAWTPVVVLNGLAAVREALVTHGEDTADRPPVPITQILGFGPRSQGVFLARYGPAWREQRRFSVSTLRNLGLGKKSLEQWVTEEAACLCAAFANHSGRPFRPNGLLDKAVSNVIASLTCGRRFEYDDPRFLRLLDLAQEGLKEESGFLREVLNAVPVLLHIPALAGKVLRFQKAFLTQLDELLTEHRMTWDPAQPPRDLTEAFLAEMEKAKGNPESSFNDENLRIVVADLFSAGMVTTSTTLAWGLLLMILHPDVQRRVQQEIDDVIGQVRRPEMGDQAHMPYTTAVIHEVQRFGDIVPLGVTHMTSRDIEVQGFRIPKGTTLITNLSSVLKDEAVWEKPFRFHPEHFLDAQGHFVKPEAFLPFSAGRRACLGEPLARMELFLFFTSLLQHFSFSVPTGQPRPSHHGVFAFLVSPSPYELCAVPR

CYP2D6 [6] = target: T2, CYP2D6; assay: Inhibition of CYP2D6 in human liver microsomes at 10 uM preincubated for 5 mins followed by NADPH addition by LC-MS/MS analysis relative to control; format: ADME, Microsome
[7] = target: T3, Extracellular calcium-sensing receptor (Homo sapiens, UniProt P41180); assay: Agonist activity at human CaSR expresssed in HEK293 cells in presence of glucose by Fluo4NW dye based FLIPR assay; format: functional, cell-based; conditions: read-out: EC50
T3 sequence (P41180 whole entry): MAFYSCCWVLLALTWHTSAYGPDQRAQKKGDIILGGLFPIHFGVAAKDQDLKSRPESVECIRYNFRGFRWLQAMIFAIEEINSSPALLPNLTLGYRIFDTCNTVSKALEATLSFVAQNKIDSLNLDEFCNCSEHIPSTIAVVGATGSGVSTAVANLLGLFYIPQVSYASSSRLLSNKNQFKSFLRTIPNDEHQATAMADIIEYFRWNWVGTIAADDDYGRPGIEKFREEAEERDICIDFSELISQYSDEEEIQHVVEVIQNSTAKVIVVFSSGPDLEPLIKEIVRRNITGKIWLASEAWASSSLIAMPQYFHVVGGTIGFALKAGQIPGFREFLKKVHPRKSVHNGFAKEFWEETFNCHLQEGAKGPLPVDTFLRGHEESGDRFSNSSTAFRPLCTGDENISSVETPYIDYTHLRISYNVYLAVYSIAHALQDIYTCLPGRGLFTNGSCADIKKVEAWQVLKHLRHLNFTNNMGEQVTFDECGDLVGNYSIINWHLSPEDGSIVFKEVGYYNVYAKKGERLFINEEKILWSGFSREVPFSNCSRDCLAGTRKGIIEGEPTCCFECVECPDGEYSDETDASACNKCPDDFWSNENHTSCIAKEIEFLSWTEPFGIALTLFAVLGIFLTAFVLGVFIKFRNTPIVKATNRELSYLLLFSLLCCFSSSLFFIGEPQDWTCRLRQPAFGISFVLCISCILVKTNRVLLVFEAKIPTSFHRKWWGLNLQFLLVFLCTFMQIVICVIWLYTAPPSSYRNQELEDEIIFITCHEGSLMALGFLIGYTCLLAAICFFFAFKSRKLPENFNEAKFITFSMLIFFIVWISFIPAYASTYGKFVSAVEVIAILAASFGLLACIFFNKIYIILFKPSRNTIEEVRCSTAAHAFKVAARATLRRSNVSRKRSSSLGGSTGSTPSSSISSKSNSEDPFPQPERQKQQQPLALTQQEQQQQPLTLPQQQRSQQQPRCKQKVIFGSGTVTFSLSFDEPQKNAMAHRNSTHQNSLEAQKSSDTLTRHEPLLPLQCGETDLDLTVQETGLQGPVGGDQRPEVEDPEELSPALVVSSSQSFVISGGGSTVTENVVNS

[8] = target: T4, Voltage-gated inwardly rectifying potassium channel KCNH2 (Homo sapiens, UniProt Q12809); assay: as §1; format: toxicity; conditions: 10 µM
T4 sequence (Q12809 whole entry): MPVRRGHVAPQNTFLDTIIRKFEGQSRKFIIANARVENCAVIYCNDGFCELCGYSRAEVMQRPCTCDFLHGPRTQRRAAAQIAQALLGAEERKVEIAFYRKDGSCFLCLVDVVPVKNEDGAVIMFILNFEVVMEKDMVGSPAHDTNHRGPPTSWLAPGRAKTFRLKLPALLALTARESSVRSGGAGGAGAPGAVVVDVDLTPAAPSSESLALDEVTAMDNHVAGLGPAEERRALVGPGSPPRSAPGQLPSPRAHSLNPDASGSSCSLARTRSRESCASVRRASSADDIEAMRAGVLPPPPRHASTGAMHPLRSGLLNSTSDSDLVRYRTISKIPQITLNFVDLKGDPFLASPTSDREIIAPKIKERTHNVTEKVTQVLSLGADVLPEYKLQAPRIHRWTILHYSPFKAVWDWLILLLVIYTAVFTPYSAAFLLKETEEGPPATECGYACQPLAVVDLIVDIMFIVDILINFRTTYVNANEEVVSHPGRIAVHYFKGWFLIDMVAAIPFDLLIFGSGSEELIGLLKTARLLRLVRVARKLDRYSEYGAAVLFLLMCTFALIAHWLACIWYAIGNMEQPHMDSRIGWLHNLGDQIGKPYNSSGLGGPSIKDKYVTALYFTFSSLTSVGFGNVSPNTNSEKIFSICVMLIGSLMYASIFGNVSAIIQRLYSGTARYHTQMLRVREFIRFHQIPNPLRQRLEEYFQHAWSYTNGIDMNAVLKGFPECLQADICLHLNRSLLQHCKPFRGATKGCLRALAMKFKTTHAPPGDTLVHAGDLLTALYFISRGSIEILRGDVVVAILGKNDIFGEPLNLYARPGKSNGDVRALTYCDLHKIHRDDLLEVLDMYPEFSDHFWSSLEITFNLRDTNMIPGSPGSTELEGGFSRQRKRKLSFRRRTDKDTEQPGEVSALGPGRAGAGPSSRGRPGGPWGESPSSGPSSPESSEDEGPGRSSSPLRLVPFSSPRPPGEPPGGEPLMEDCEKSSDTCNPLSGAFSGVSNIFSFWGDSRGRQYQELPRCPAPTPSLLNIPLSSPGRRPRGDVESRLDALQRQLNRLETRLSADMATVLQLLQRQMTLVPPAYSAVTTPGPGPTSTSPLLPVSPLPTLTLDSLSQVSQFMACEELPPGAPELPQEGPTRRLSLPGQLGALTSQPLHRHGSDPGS

[9] = target: T4, Voltage-gated inwardly rectifying potassium channel KCNH2; assay: as §2; format: toxicity; conditions: 1 µM

T1 sequence (Q12809 whole entry): as above

Row | remaining at 0.5 h, 1 µM [2] | remaining at 0.5 h, 1 µM [4] | inhibition at 1 µM (CYP2D6 [5]) | inhibition at 10 µM (CYP2D6 [6]) | EC50 [7] | Stability ([2]; microsomes, 0.5 h, 1 µM) | SMILES | Activity (Rattus norvegicus) | inhibition at 10 µM (hERG [1]) | inhibition at 1 µM (hERG [3]) | inhibition (INH) [8] | inhibition (INH) [9]
1 | 94% | 40% | 5% | 25% |  |  | C[C@@H](NC[C@H]1C[C@@H](c2ccc(F)c(C(=O)O)c2)c2ccccc2O1)c1cccc2ccccc12 |  |  |  |  | 
2 | 45% | 87% | 6% | 36% | 0.0364 µM |  | C[C@@H](NCC1CN(c2cccc(OCC(=O)O)c2)c2ccccc2O1)c1cccc2ccccc12 (some centres undefined) |  | 66% | 43% |  | 
3 |  | 45% | 26% | 43% | 0.0475 µM | 40% | Cc1c(C(=O)O)cccc1N1CC(CN[C@H](C)c2cccc3ccccc23)Oc2ccccc21.Cl (mixture of isomers; form 1) |  |  |  | -5% | -8%
4 |  |  |  |  | 0.146 µM |  | C[C@@H](NCC1CN(c2cccc(C(=O)O)c2)c2ccccc2O1)c1cccc2ccccc12 (mixture of isomers; form 2) |  |  |  |  | 
5 |  |  |  |  | 0.169 µM |  | Cc1cc(C(=O)O)cc(N2CC(CN[C@H](C)c3cccc4ccccc34)Oc3ccccc32)c1 (mixture of isomers; form 2) |  |  |  |  | 
6 |  |  |  |  | 0.0841 µM |  | Cc1cc(C(=O)O)cc(N2CC(CN[C@H](C)c3cccc4ccccc34)Oc3ccccc32)c1 (mixture of isomers; form 1) |  |  |  |  | 
7 | 74% | 47% | 8% | 41% | 0.0336 µM |  | Cc1ccc([C@@H]2C[C@@H](CN[C@H](C)c3cccc4ccccc34)Oc3ccccc32)cc1C(=O)O |  | -1% | 4% |  | 
8 |  |  |  |  | 0.104 µM |  | C[C@@H](NCC1CN(c2cccc(CC(=O)O)c2)c2ccccc2O1)c1cccc2ccccc12 (some centres undefined) |  |  |  |  | 

Second part, the compound before the results:

Row | SMILES | remaining at 0.5 h, 1 µM [2] | remaining at 0.5 h, 1 µM [4] | inhibition at 1 µM (CYP2D6 [5]) | inhibition at 10 µM (CYP2D6 [6]) | EC50 [7] | Stability ([2]; microsomes, 0.5 h, 1 µM) | Activity (Rattus norvegicus) | inhibition at 10 µM (hERG [1]) | inhibition at 1 µM (hERG [3]) | inhibition (INH) [8] | inhibition (INH) [9]
9 | Cc1ccc(N2CC(CN[C@H](C)c3cccc4ccccc34)Oc3ccccc32)cc1C(=O)O (some centres undefined) |  |  |  |  |  |  | Dose-Dependent Effect |  |  |  | 
10 | C[C@@H](NCC1CN(c2ccc(F)c(C(=O)O)c2)c2ccccc2O1)c1cccc2ccccc12 (mixture of isomers; form 1) | 6% | 61% |  |  |  |  |  | 21% | 5% |  | 
11 | Cc1c(C(=O)O)cccc1[C@@H]1C[C@H](CN[C@H](C)c2cccc3ccccc23)Oc2ccccc21 | 47% | 52% | 7% | 25% |  |  |  |  |  |  | 
12 | C[C@@H](NCC1CN(c2cccc(C(=O)O)c2)c2ccccc2O1)c1cccc2ccccc12 (mixture of isomers; form 1) | 49% | 36% | 27% | 41% | 0.0328 µM |  |  | -8% | -1% |  | 
13 | C[C@@H](NC[C@H]1C[C@@H](c2cccc(C(=O)O)c2)c2ccccc2O1)c1cccc2ccccc12 | 42% | 31% | 17% | 35% |  |  |  |  |  |  | 
14 | C[C@@H](NCC1CN(c2ccccc2)c2ccccc2O1)c1cccc2ccccc12 (mixture of isomers; form 2) |  |  |  |  | 0.114 µM |  |  |  |  |  | 
15 | C[C@@H](NCC1CN(C(=O)c2ccccc2)c2ccccc2O1)c1cccc2ccccc12 (mixture of isomers; form 1) | 3% | 0% | 7% | 72% | 0.021 µM |  |  | 52% | 16% |  | 
16 | C[C@@H](NCC1CN(C)c2ccccc2O1)c1cccc2ccccc12 (some centres undefined) | 5% | 0% | 92% | 93% |  |  |  | 42% | 13% |  | 
17 | Cc1ccc(C(=O)O)cc1[C@@H]1C[C@H](CN[C@H](C)c2cccc3ccccc23)Oc2ccccc21 | 80% | 52% | 7% | 36% |  |  |  | 2% | 5% |  | 

— ChEMBL document CHEMBL5346964, “Discovery of LNP1892: A Precision Calcimimetic for the Treatment of Secondary Hyperparathyroidism” (J Med Chem, 2023)
